Test results as given in publication PMC9866482, “Determination of Chemical Composition and Investigation of Biological Activities of Ocimum basilicum L” (Molecules, 2023).
Marks after values point to notes of the source that are not given here.

How the values were obtained:
[1] = system: Escherichia coli ATCC 25922; test: MIC and MBC by microdilution; type: cell-based; conditions: ATCC25922, head does not say MIC or MBC, method names the control for MIC, read-out: Controls (MIC of positive control)
Method: (§1) The bacterial strains were revived by inoculation in Mueller–Hinton Agar (MHA) followed by incubation at 37 °C for 24 h. A bacterial suspension (0.5 McFarland) was prepared in sterile physiologic water (0.9% NaCl) from the obtained culture. The yeast strain was inoculated in Sabouraud’s agar (SA) and incubated at 25 °C for 48 h, then a yeast suspension (0.5 McFarland) was prepared in sterile physiological water. The Fungi strains were sub-cultured in SA and incubated at 25 °C for 5 days. Afterward, the culture was washed with 2 mL of sterile physiological water. The suspension was transferred to a sterile assay tube, where the heavy particles were allowed to settle for 5 min. The upper homogeneous suspensions were transferred to a new sterile tube and adjusted microscopically to about 10^4 CFU/mL. […] The minimum inhibitory concentration (MIC) is defined as the lowest concentration of EO or extract that can inhibit the growth of microorganisms. […] Mueller–Hinton broth (MHB) (Biokar, Beauvais, France) was used for bacteria, whereas Sabouraud broth (Biokar, Beauvais, France) was employed for yeast. The incubation was carried out at 37 °C for 24 h for the bacteria and at 25 °C for 48 h for the yeasts. However, MIC determination for fungi was carried out by the gradient plate method according to the protocol previously described. Chloramphenicol was used as a positive control for bacteria, while nystatin was used for yeasts and fungi. Minimum bactericidal concentration (MBC) corresponds to the lowest EO or extract concentration that can kill the microorganism. The same microdilution experiment used in determining the MIC was used.

[2] = system: Salmonella enterica Typhimurium ATCC 700408; test: MIC and MBC by microdilution; type: cell-based; conditions: head does not say MIC or MBC, read-out: Controls (MIC of positive control)
Method: as §1

[3] = system: Proteus mirabilis ATCC 25933; test: MIC and MBC by microdilution; type: cell-based; conditions: ATCC25933, head does not say MIC or MBC, read-out: Controls (MIC of positive control)
Method: as §1

[4] = system: Staphylococcus aureus ATCC 29213; test: MIC and MBC by microdilution; type: cell-based; conditions: ATCC29213, head does not say MIC or MBC, read-out: Controls (MIC of positive control)
Method: as §1

[5] = system: Bacillus subtilis ATCC 6633; test: MIC and MBC by microdilution; type: cell-based; conditions: ATCC6633, head does not say MIC or MBC, read-out: Controls (MIC of positive control)
Method: as §1

[6] = system: Listeria monocytogenes ATCC 13932; test: MIC and MBC by microdilution; type: cell-based; conditions: ATCC13932, head does not say MIC or MBC, read-out: Controls (MIC of positive control)
Method: as §1

[7] = system: Escherichia coli ATCC 25922; test: Disc diffusion assay; type: cell-based; conditions: ATCC25922, disc with 10 µL EO or aqueous extract, chloramphenicol 30 µg, read-out: Diameters of the inhibition zones
Method: (§2) The bacterial strains were revived by inoculation in Mueller–Hinton Agar (MHA) followed by incubation at 37 °C for 24 h. A bacterial suspension (0.5 McFarland) was prepared in sterile physiologic water (0.9% NaCl) from the obtained culture. The yeast strain was inoculated in Sabouraud’s agar (SA) and incubated at 25 °C for 48 h, then a yeast suspension (0.5 McFarland) was prepared in sterile physiological water. The Fungi strains were sub-cultured in SA and incubated at 25 °C for 5 days. Afterward, the culture was washed with 2 mL of sterile physiological water. The suspension was transferred to a sterile assay tube, where the heavy particles were allowed to settle for 5 min. The upper homogeneous suspensions were transferred to a new sterile tube and adjusted microscopically to about 10^4 CFU/mL.
(§3) Briefly, the culture suspension was inoculated by swab on optimal culture media (MHA for bacteria and SA for yeasts and fungi). Afterward, six mm diameter sterile paper discs soaked in 10 µL of EO (mixed with 5% dimethyl sulfoxide (DMSO)) or aqueous extract were deposited on each plate. Chloramphenicol (30 µg) was used as a positive control for bacteria, and nystatin (100 I.U.) was used as a positive control for yeasts and fungi, while DMSO (10 µL; 5%) as a negative control. Incubation was then conducted at 37 °C for 24 h, 25 °C for 48 h, and 25 °C for 72 h for bacteria, yeasts, and fungi, respectively. After incubation, the diameters of the inhibition zones were measured in millimeters, and the results were expressed as the mean ± standard deviation (SD) of three replicates.

[8] = system: Salmonella enterica Typhimurium ATCC 700408; test: Disc diffusion assay; type: cell-based; conditions: disc with 10 µL EO or aqueous extract, chloramphenicol 30 µg, read-out: Diameters of the inhibition zones
Method: as §2, §3

[9] = system: Proteus mirabilis ATCC 25933; test: Disc diffusion assay; type: cell-based; conditions: ATCC25933, disc with 10 µL EO or aqueous extract, chloramphenicol 30 µg, read-out: Diameters of the inhibition zones
Method: as §2, §3

[10] = system: Staphylococcus aureus ATCC 29213; test: Disc diffusion assay; type: cell-based; conditions: ATCC29213, disc with 10 µL EO or aqueous extract, chloramphenicol 30 µg, read-out: Diameters of the inhibition zones
Method: as §2, §3

[11] = system: Bacillus subtilis ATCC 6633; test: Disc diffusion assay; type: cell-based; conditions: disc with 10 µL EO or aqueous extract, chloramphenicol 30 µg
Method: as §2, §3

[12] = system: Listeria monocytogenes ATCC 13932; test: Disc diffusion assay; type: cell-based; conditions: ATCC13932, disc with 10 µL EO or aqueous extract, chloramphenicol 30 µg, read-out: Diameters of the inhibition zones
Method: as §2, §3

[13] = system: Aspergillus niger; test: MIC by gradient plate method, MBC; type: cell-based; conditions: head does not say MIC or MBC
Method: as §1, with “Chloramphenicol was used as a positive control for bacteria, while nystatin was used for yeasts and fungi. Minimum bactericidal concentration (MBC) corresponds to the lowest EO or extract concentration that can kill the microorganism. The same microdilution experiment used in determining the MIC was used.” left out

[14] = system: Trichophyton rubrum; test: MIC by gradient plate method, MBC; type: cell-based; conditions: head does not say MIC or MBC
Method: as §1, with “Chloramphenicol was used as a positive control for bacteria, while nystatin was used for yeasts and fungi. Minimum bactericidal concentration (MBC) corresponds to the lowest EO or extract concentration that can kill the microorganism. The same microdilution experiment used in determining the MIC was used.” left out

[15] = system: Aspergillus niger; test: Disc diffusion assay; type: cell-based; conditions: disc with 10 µL EO or aqueous extract, nystatin 100 I.U.
Method: as §2, §3

[16] = system: Candida albicans; test: Disc diffusion assay; type: cell-based; conditions: disc with 10 µL EO or aqueous extract, nystatin 100 I.U.
Method: as §2, §3

[17] = system: Trichophyton rubrum; test: Disc diffusion assay; type: cell-based; conditions: disc with 10 µL EO or aqueous extract, nystatin 100 I.U.
Method: as §2, §3

[18] = system: Candida albicans; test: MIC and MBC by microdilution (yeast); type: cell-based; conditions: head does not say MIC or MBC
Method: as §1, with “Chloramphenicol was used as a positive control for bacteria, while nystatin was used for yeasts and fungi. Minimum bactericidal concentration (MBC) corresponds to the lowest EO or extract concentration that can kill the microorganism. The same microdilution experiment used in determining the MIC was used.” left out

[19] = ABTS antioxidant assay; conditions: mean of triplicates ± SD
[20] = Ferric reducing antioxidant power (FRAP) assay; conditions: mean of triplicates ± SD
[21] = target: tyrosinase (Agaricus bisporus, UniProt C7FF04); conditions: basil EOs from different cultivars, arbutin as positive control ref 111; cited from earlier work
tyrosinase, sequence (C7FF04 1-392): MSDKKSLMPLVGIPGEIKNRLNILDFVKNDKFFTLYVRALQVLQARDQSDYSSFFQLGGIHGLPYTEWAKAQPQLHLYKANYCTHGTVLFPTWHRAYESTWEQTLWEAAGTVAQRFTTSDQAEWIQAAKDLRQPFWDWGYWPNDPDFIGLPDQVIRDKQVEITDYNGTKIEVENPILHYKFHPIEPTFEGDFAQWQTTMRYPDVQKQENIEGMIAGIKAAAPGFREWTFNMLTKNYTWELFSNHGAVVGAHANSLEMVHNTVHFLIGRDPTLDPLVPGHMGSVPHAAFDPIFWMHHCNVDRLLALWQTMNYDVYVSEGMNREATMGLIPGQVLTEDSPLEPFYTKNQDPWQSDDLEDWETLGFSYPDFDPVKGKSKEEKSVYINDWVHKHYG

[22] = design: method as in PMID 35926753; conditions: LPS-treated rats, oral dose 500 mg/60 kg b.w. ref 109; cited from earlier work

O=C(N[C@H](CO)[C@H](O)c1ccc([N+](=O)[O-])cc1)C(Cl)Cl [Chloramphenicol]
MIC [1]: 4 µg/mL | MIC [2]: 64 µg/mL | MIC [3]: 4 µg/mL | MIC [4]: 4 µg/mL | MIC [5]: 32 µg/mL | MIC [6]: 2 µg/mL | zone of inhibition at 30 µg/disc [7]: 21.9 ± 0.2 mm | zone of inhibition at 30 µg/disc [8]: 13.5 ± 0.15 mm | zone of inhibition at 30 µg/disc [9]: 22.2 ± 0.15 mm | zone of inhibition at 30 µg/disc [10]: 25 ± 0.25 mm | Diameters of the inhibition zones ([11]; Bacillus subtilis ATCC 6633): 15.5 ± 0.15 mm | zone of inhibition at 30 µg/disc ([11]; Bacillus subtilis, ATCC6633, Bacillus subtilis ATCC 6633, read-out: Diameters of the inhibition zones): 15.7 mm | zone of inhibition at 30 µg/disc [12]: 27.9 ± 0.15 mm

C[C@@H]1[C@H](O)[C@@H](C)/C=C/C=C/CC/C=C/C=C/C=C/C=C/C(O[C@H]2O[C@H](C)[C@@H](O)[C@H](N)[C@@H]2O)CC2O[C@](O)(CC(O)C(O)CCC(O)CC(O)CC(O)CC(=O)O[C@H]1C)CC(O)C2C(=O)O (stereo partly drawn) [Nystatin]
Controls (MIC of positive control) [13]: 16 µg/mL | Controls (MIC of positive control) [14]: 16 µg/mL | Diameters of the inhibition zones [15]: 26.4 ± 0.10 mm | Diameters of the inhibition zones [16]: 29.7 ± 0.20 mm | Diameters of the inhibition zones [17]: 24.9 ± 0.26 mm | Controls (MIC of positive control) [18]: 4 µg/mL

Cc1c(C)c2c(c(C)c1O)CCC(C)(C(=O)O)O2 (stereo not drawn) [Trolox]
IC50 ABTS [19]: 9.33 ± 0.07 ^c mg TEs/g | IC50 FRAP [20]: 8.52 ± 0.17 ^c mg TEs/g

OC[C@H]1O[C@@H](Oc2ccc(O)cc2)[C@H](O)[C@@H](O)[C@@H]1O [arbutin]
Tyrosinase inhibitory activity [21]: 81.5 ± 2.6%

O=C(O)c1ccccc1 [benzoic acid]
Level of IL-1β [22]: 2.32 ± 0.28 × 10^3 pg/mL | Level of tumor necrosis factor-α (TNF-α) [22]: 5.70 ± 1.04 × 10^3 pg/mL
